In ChEMBL document CHEMBL1146190, “Azadideoxyadenosine: synthesis, enzymology, and anti-HIV activity” (Bioorg Med Chem Lett, 2006):

Experiments:
[1] = system: PBMC; assay: Cytotoxicity against human PBMC; type: functional
[2] = system: Human immunodeficiency virus 1; assay: Antiviral activity against HIV1 TEKI; type: functional, organism-based; conditions: Human immunodeficiency virus 1, TEKI
[3] = system: Human immunodeficiency virus 1; assay: Antiviral activity against HIV1 NL4-3; type: functional, organism-based; conditions: Human immunodeficiency virus 1, NL4-3

Question: Cc1cn([C@H]2C[C@H](N=[N+]=[N-])[C@@H](CO)O2)c(=O)[nH]c1=O [ZIDOVUDINE] was tested. Which CC50 [1] did it give?
Answer: > 1 µM

Question: With Nc1ncnc2c1ncn2[C@H]1CN[C@@H](CO)C1 as the compound, how does the IC50 [2] read?
Answer: 3.52 µM

Question: And the IC50 [3]?
Answer: 3.11 µM

Question: And the CC50 [1]?
Answer: 46.6 µM
